Assay results as given in paper PMC10766610, “DCAF1-based PROTACs with activity against clinically validated targets overcoming intrinsic- and acquired-degrader resistance” (Nature Communications, 2024).
Read-outs that look alike come from different tables or passages of the source.

Columns and labels:
[1] = test system: TMD8 WT and TMD8 CRBN resist. cells; test: CellTiter-Glo viability, TMD8 WT vs CRBN resist. cells; format: cell-based, human; details: CellTiter-Glo proliferation
Procedure: TMD8 cells were grown in the presence of a CRBN-BTK PROTAC CBt using a gradual dose increase. Start treatment was 0.1 nM for 6 weeks, followed by 3 weeks at 0.4 nM and another 4 weeks at 10 nM to finally obtain CBt resistant TMD8 cells (TMD8 CRBN resist.).
d) Viability measured by cell titer-Glo for DBt-10 (green) vs (13) (purple) in WT (solid) vs CRBN resist.
(dotted) TMD8 cells. Data represents average ± standard deviation from n=3 replicates.
e) Repeat of the viability measured by cell titer-Glo for DBt-10 (green) vs (13) (purple) in WT (solid) vs
CRBN resist. (dotted) TMD8 cells with adjusted dose response range. Data represents average ±
standard deviation from n=3 replicates.
Source data are provided as a Source Data file

TMD8 cells = test: Whole proteomics profile, DBt-10 vs (19), TMD8 cells; format: cell-based, human; details: 5 µM DBt-10 vs 5 µM (19), 6 h
Procedure: HEK293T and TMD8 cells were cultured according to protocol and 3 million cells were plated per sample and recovered for 24 h. The following day, cells were treated with indicated compounds at corresponding concentrations for 6 h. Cells were then harvested and washed 2× with PBS before removing all liquid and snap freezing in liquid nitrogen before sample preparation for proteomics.
TMT-labeled peptides were generated with the iST-NHS kit (PreOmics) and TMT10plex (duplicates per condition) or TMT18plex (triplicates per condition) reagent (Thermo Fisher Scientific). Equal amounts of labeled peptides were pooled and separated on a high pH fractionation system with a water-acetonitrile gradient containing 10 mM ammonium formate, pH 11[88]. Alternating rows of the resulting 72 fractions were pooled into 24 samples, dried and resuspended in water containing 0.1% formic acid.
The LC-MS analysis was carried out on an EASY-nLC 1200 system coupled to an Orbitrap Fusion Lumos Tribrid mass spectrometer (Thermo Fisher Scientific). […]
LC-MS raw files were analyzed with Proteome Discoverer 2.4 (Thermo Fisher Scientific). […] TMT reporter ions of the MS3 spectra were integrated with a 20 ppm tolerance and the reporter ion intensities were used for quantification. […] Protein relative quantification was performed using an in-house developed R (v.3.6) script. […]

BRD9 = biological target: T1, BRD9 (Homo sapiens, UniProt Q9H8M2); test: BRD9-HiBiT protein abundance luminescence assay in HEK293 cells; details: 2 h
T1 sequence (Q9H8M2 1-597): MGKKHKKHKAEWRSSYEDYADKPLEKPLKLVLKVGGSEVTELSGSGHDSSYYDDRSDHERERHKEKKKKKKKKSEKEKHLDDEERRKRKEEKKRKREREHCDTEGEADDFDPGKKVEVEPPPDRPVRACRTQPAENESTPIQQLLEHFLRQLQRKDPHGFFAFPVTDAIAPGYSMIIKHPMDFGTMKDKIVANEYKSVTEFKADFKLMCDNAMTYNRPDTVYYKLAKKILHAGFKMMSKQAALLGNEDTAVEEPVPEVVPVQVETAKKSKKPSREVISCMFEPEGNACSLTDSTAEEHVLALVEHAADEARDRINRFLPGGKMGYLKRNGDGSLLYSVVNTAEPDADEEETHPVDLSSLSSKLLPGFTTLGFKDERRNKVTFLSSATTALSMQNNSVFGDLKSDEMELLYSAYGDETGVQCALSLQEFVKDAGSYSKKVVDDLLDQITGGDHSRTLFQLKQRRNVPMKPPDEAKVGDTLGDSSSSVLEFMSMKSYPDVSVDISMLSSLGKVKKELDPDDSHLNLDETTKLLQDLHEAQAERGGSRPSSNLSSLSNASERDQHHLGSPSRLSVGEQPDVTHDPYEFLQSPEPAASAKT
Source text: HEK293/BRD9-HiBiT pools (PROMEGA # CS3023120) and HEK293/BRD7-HiBiT pools (PROMEGA # CS3023124) were purchased from Promega. We performed clonal selection for HEK293/BRD9-HiBiT cell line using single-cell sorting and screening for HiBiT expression using Nano-Glo HiBiT Lytic Detection System (Promega # N3030). The HEK293/BRD9-HiBiT clone and HEK293/BRD7-HiBiT pool to perform standard HiBiT assays.

| SMILES | relative potency change between CBt sensitive and resistant TMD8 cells [1] | only other protein with significantly reduced abundance (proteomics) (TMD8 cells) | strongest reduced protein (proteomics) (TMD8 cells) | DC50 (BRD9; read-out: DC50 BRD9-HiBiT, BRD9-HiBiT/CAS9/FF cells) | DC50 (BRD9; read-out: DC50 BRD9, HEK293/BRD9-HiBiT cells) |
| --- | --- | --- | --- | --- | --- |
| Cc1c(NC(=O)N2CC(O)(CC(C)(C)C)C2)cc(F)cc1-c1ncnc2[nH]c(-c3cnn(CC(=O)N4CCC5(CC4)CN(CCNC(=O)CCCC(=O)N4CCN(c6ccc7c(NCCN)nc(C8(c9ccc(Cl)cc9)CCCCC8)nc7c6)CC4)CCO5)c3)cc12 [DBt-10] | did not show any relative potency differences | LIM domain kinase 1 (LIMK1) | BTK |  |  |
| COc1cc(-c2cn(C)c(=O)c3cnccc23)c(OC)cc1CN1CCC(OCCCCCC(=O)N2CCN(c3ccc4c(NCCN)nc(C5(c6ccc(Cl)cc6)CCCCC5)nc4c3)CC2)CC1 [DBr-1] |  |  |  | 193 nM | 90 nM |
